Test results taken from patent US12275731B2, “Azaindole inhibitors of wild-type and mutant forms of LRRK2” (DANA-FARBER CANCER INSTITUTE, INC., priority 2018, dated 2025).

What was measured:
Assay in all cases: KinomeScan profiling
Assay type in all cases: binding
MAP3K15 = target: T1, MAP3K15 (Homo sapiens, UniProt Q6ZN16); conditions: MAP3K15, 1 μM; read-out: % control
T1 sequence (Q6ZN16 1-1313): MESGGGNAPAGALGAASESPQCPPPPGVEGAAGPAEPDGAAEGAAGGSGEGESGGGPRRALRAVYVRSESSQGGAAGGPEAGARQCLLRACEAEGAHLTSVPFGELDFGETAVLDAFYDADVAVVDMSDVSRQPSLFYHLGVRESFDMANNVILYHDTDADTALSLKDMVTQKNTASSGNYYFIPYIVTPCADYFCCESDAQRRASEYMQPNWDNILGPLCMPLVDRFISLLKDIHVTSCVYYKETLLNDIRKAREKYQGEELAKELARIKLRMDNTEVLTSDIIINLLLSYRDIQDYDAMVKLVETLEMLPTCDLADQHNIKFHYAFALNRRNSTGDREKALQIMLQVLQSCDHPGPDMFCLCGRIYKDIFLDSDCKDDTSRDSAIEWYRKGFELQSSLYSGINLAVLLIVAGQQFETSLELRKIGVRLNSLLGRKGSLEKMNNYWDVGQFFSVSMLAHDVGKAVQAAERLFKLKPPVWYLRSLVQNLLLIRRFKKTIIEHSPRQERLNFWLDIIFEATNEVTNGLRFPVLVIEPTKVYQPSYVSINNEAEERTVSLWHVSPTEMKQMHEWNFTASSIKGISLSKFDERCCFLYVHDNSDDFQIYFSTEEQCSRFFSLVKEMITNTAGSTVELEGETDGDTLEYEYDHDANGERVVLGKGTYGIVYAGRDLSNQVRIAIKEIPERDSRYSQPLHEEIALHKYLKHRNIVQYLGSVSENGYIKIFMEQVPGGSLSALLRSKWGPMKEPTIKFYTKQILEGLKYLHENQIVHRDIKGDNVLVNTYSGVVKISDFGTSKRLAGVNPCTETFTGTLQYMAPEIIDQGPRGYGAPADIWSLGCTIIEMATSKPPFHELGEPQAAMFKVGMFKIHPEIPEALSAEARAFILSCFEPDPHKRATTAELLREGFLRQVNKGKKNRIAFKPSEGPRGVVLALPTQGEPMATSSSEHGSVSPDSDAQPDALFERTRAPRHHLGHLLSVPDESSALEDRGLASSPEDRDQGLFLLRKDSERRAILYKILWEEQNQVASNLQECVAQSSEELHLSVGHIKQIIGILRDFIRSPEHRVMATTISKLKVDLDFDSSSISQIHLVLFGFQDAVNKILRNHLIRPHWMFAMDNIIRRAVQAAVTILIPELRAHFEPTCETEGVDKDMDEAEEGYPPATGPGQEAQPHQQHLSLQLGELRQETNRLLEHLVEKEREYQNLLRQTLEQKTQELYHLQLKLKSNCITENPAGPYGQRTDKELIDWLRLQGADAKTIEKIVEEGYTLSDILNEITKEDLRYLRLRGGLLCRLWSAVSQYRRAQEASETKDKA
In short: (§1)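 At 1 μM in DMSO, compounds are run through a broad 468-member kinase panel. The luminescent read-out is normalised so that vehicle gives 100% and a positive control gives 0%; any kinase falling below 35% is treated as a target.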

ASK1 = target: T2, ASK1 (Homo sapiens, UniProt Q99683); conditions: ASK1, 1 μM; read-out: % control
T2 construct: purchased KinomeScan®
T2 sequence (Q99683 1-1374): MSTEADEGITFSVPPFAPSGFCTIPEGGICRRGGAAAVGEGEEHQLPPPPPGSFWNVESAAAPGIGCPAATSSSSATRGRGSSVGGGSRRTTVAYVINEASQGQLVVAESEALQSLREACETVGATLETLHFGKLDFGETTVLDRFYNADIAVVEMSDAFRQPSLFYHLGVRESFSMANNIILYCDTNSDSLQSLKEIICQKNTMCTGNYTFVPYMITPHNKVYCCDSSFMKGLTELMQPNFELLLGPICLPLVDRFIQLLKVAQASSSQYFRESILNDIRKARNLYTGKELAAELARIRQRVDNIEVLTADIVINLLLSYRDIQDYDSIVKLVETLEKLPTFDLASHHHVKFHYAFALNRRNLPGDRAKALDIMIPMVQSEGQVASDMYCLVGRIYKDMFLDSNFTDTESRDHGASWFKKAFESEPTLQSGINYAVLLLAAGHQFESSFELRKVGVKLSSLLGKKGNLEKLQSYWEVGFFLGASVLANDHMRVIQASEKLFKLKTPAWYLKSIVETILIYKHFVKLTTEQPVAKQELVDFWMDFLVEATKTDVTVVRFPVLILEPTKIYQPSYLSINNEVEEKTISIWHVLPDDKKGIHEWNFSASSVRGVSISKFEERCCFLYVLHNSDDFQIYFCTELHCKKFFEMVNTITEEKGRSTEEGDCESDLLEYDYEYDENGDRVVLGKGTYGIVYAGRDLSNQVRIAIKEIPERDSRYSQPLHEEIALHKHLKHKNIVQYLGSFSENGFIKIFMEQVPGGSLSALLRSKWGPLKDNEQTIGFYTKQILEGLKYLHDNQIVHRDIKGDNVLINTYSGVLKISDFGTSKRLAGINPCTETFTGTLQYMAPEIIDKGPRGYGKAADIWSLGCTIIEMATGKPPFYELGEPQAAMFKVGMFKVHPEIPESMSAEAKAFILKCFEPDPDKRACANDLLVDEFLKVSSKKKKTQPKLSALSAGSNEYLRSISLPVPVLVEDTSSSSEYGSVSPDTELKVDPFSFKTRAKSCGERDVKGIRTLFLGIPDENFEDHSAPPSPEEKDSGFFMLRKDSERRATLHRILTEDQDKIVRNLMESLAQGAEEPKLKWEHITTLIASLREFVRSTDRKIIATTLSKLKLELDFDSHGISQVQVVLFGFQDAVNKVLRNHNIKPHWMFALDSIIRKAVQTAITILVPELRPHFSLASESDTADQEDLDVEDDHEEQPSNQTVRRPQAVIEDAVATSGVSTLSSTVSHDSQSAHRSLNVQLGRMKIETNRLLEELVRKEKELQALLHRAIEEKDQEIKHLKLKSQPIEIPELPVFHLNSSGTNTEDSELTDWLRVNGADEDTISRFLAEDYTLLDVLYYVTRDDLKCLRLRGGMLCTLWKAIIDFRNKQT
In short: as §1

PAK3 = PAK3 (Homo sapiens, UniProt O75914); conditions: PAK3, 1 μM; read-out: % control
In short: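 Single-point competition binding screen: 1 μM, DMSO, 468 kinases. Results reported as % control from RLU, normalised to DMSO and positive-control wells. Activity threshold: <35% control.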

Sequence of PAK3 (O75914 whole entry): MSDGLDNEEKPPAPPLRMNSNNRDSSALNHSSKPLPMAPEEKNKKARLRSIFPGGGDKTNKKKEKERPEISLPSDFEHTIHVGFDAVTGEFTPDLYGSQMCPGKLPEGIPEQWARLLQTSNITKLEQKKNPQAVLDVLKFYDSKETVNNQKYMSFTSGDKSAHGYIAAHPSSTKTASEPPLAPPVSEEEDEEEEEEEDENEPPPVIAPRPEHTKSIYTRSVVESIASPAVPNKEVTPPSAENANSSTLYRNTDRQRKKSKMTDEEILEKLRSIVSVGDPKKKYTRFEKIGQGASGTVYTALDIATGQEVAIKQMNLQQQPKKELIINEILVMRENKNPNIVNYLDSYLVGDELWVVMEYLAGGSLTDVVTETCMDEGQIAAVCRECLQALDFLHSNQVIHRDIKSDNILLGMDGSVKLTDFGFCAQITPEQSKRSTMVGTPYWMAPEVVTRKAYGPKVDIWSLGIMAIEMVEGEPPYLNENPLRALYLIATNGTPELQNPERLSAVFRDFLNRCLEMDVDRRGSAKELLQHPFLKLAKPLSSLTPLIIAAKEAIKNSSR

Row | Structure (SMILES) | remaining binding at 1 µM (MAP3K15) [%] | remaining binding at 1 µM (ASK1) [%] | remaining binding at 1 µM (PAK3) [%]
1 | CNc1c(-c2ccc(C(=O)N3CCC(N4CCOCC4)CC3)cc2)cnc2[nH]cc(Cl)c12 [Compound 96, (4-(3-chloro-4-(methylamino)-1H-pyrrolo[2,3-b]pyridin-5-yl)phenyl)(4-morpholinopiperidin-1-yl)methanone] | 1.8 | 5.9 | 74
2 | O=C(c1ccc(-c2cnc3[nH]cc(Cl)c3c2NC2CCCC2)cc1)N1CCC(N2CCOCC2)CC1 [Compound 101, (4-(3-chloro-4-(cyclopentylamino)-1H-pyrrolo[2,3-b]pyridin-5-yl)phenyl)(4-morpholinopiperidin-1-yl)methanone] | 100 | 94 | 86
3 | CNc1c(-c2cnn([C@H]3CCN(C(C)=O)C[C@@H]3F)c2)cnc2[nH]cc(Cl)c12 [Compound 77, 1-((3S,4S)-4-(4-(3-chloro-4-(methylamino)-1H-pyrrolo[2,3-b]pyridin-5-yl)-1H-pyrazol-1-yl)-3-fluoropiperidin-1-yl)ethan-1-one] | 1.4 | 4.3 | 97
